The values below come from the METLIN SMRT retention time set (Domingo-Almenara et al. 2019).

Structures are written as SMILES.

A short description of this series: gradient 5% acetonitrile 3 min, to 50% in 2 min, to 85% in 15 min, held 3 min, 100 µL/min. Conditions: column: Zorbax Extend-C18 2.1 x 50 mm; eluents: water / acetonitrile, 0.1% formic acid. In short, it runs like this:
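Mixtures of ~100 pure standards were chromatographed on a Zorbax Extend-C18 column (2.1 × 50 mm, 1.8 μm) at 100 μL/min using water and acetonitrile, each with 0.1% formic acid. Detection used a quadrupole time-of-flight mass spectrometer in positive and negative ionization mode, and data collection spanned 3 months. Retention time was obtained from adduct peaks picked computationally and each checked manually.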
In turn, `O=C(Cn1nc2c3cc(-c4ccc(F)cc4)nn3ccn2c1=O)Nc1ccc(Br)cc1` displayed an RP-LC retention time of 923 s. As for `Cc1oc2c(c1C(=O)Nc1ccc3c(c1)OCO3)C1=NC(C)(C)CN1C=N2`, the RP-LC retention time was 665 s. With `CCOC(=O)c1c(C)[nH]c(C)c1S(=O)(=O)N1CCC(C(=O)Nc2ccc(C)cn2)CC1`, the RP-LC retention time stood at 646 s. As for `Cc1nnc2ccc(-c3noc(-c4ccc(Cl)cc4)n3)cn12`, the RP-LC retention time worked out at 959 s. Next, `Cc1csc(NC(=O)c2ccc(N3CCCC3)nn2)n1`: 626 s. `Cc1cc(NC(=O)NCCCSc2nc3ccccc3s2)no1` returned an RP-LC retention time of 805 s. Then `COc1ccc(CCNC(=O)CN2C(=O)c3cccc4cccc(c34)C2=O)cc1OC`, with 725 s.

On to `CN(C)CCOc1ccccc1Cc1ccccc1`, for which the RP-LC retention time was determined as 762 s. Consider `C[C@H]1CN(C(=O)Nc2ccc3c(c2)CCC3)C[C@@H]1c1nc(-c2ccncc2)no1`, for which the RP-LC retention time amounted to 888 s. Regarding `CCCNS(=O)(=O)c1cc(-c2nnc(-c3ccccc3)o2)ccc1OC`, the RP-LC retention time came out at 891 s. As for `O=C(NC1CCCCC1)c1nc(-c2ccncc2)cs1`, the RP-LC retention time stood at 660 s. In the case of `O=C(NCc1ccccc1)c1nc(Cn2c(=O)oc3ccccc32)no1`, the RP-LC retention time was 880 s. Take `Cc1csc(-c2ccc(CNC(=O)c3ccoc3)cc2)n1`: the RP-LC retention time is 781 s. Then `CCn1c(=O)c(C(=O)NCc2ccc(C)o2)nc2cccnc21`, with 766 s; and `CCOc1c(C(=O)OC)sc2ccc(NC(=O)c3[nH]nc4c3CCc3ccccc3-4)cc12`, with 1140 s; and `CCOC(=O)C1=C(CN(C)c2ccccc2)NC(=O)NC1c1ccc(C)cc1` (centres undefined), with 1020 s. Compound `CCN1CCN(c2nc(F)c(F)c(S(=O)(=O)CCNc3cccc(C(F)(F)F)c3)c2F)CC1` yielded an RP-LC retention time of 731 s.

The compound `O=S(=O)(NC1CCCC1)c1ccc(-c2nnc(C3CC3)o2)o1` yielded an RP-LC retention time of 812 s.

`O=C(NC1CCN(c2cc(-c3ccc(F)cc3)[nH]n2)C1)c1cccs1` (centres undefined) gave an RP-LC retention time of 699 s. On to `O=C(NCc1ccco1)c1ccc2c(c1)CCCN2S(=O)(=O)c1ccccc1`, for which the RP-LC retention time turned out to be 914 s. `Cc1ccc(CNC(=O)N2CCC(C(=O)NCc3csc(C)n3)CC2)cc1`: the RP-LC retention time stood at 661 s. In the case of `C=CCNC(=O)N1CCCN(C2=NS(=O)(=O)C(c3ccc(C)cc3)=C2C)CC1`, the RP-LC retention time was 732 s. Next, `CCCCN1C(=O)C(C)(C(=O)N2CCN(c3ccccc3F)CC2)Oc2cccnc21` (centres undefined): 1190 s; `COc1ccc(OC)c(NC(=O)N2CCC(c3cnn(-c4ccccc4)c3)CC2)c1`: 956 s; `COC(=O)c1ccc(-c2csc(NC(=O)c3cc(C)no3)n2)cc1`: 846 s. `O=C(NCCc1cccs1)C1CCN(c2cc(N3CCOCC3)ncn2)CC1` displayed an RP-LC retention time of 607 s. Then `COCCc1noc(C2CN(C(=O)c3cn(C)cn3)C2)n1`, with 555 s; and `Cc1oc2ccn(Cc3ccc(F)cc3)c(=O)c2c1C(=O)NCC1CCCO1` (centres undefined), with 870 s; and `CC(C)c1nnc2n1CCN(C(=O)c1cc(-c3ccccc3)n[nH]1)C2`, with 647 s. As to `COc1ccc(NC(=O)N2CCN(c3cc(-c4ccc(OC)c(OC)c4)ncn3)CC2)c(OC)c1`, the RP-LC retention time was 660 s.

Compound `CN1c2cc(Cl)ccc2C(=O)NC12CCN(C(=O)NCCc1ccccc1)CC2` showed an RP-LC retention time of 757 s. `Cc1nc(-c2ccc(-c3noc(CNC(=O)c4ccccc4)n3)cc2)cs1` gave an RP-LC retention time of 902 s. Consider `Cc1cc2[nH]c(C(=O)NCc3ccc(F)cc3)c(CN3CCOCC3)c2s1`, for which the RP-LC retention time amounted to 689 s. Compound `CC(Oc1ccc(C(C)(C)C)cc1)C(=O)N(Cc1ccco1)C1CCS(=O)(=O)C1` (centres undefined) had an RP-LC retention time of 1050 s. The compound `CC1CCCN(c2ccn3c(=O)n(CC(=O)N(C)c4ccccc4)nc3n2)C1` (centres undefined) displayed an RP-LC retention time of 742 s. Compound `Cc1cc(C(=O)NC2CC2)c2cc(C(C)C)ccc2n1` gave an RP-LC retention time of 636 s. `CCN(CC)CCNC(=O)C1CCCN(c2nc3cccnc3s2)C1` (centres undefined): the RP-LC retention time came to 577 s. Then `O=C(Nc1cccc(F)c1)C1(CCO)CCN(c2ncccn2)C1` (centres undefined), with 639 s.

The compound `CCc1nc(OCC(=O)Nc2ccccc2Cl)c2ccccc2n1` showed an RP-LC retention time of 831 s.

For the compound `COc1ccc(C(CC(=O)NCCN2CCN(C)CC2)N2Cc3ccccc3C2=O)cc1OC` (centres undefined), the RP-LC retention time turned out to be 579 s.

Compound `Cc1cccc(CN2N=C(C(=O)N3CCCCC3)S(=O)(=O)c3ccccc32)c1` returned an RP-LC retention time of 1010 s.

In turn, `O=C1CCCC(=O)N1CCS(=O)(=O)N1CCN(c2cccc(Cl)c2Cl)CC1` displayed an RP-LC retention time of 887 s. Compound `CC(C)c1nc2ccc(C(=O)NCCN(C)C3CCCCC3)cc2o1` came in with an RP-LC retention time of 656 s. As for `O=C(C1CCCN(c2nnc3ccccn23)C1)N1CCN(c2ccccn2)CC1` (centres undefined), the RP-LC retention time came out at 514 s. Next, `Cc1ccc(S(=O)(=O)N2CCC(N3CC(F)(F)C[C@H]3CN(C)C)CC2)c(C)c1`: 715 s. Then `CN(C)c1ccc(CNC(=O)C2CCN(c3cncnc3N3CCOCC3)CC2)cc1`, with 545 s. Regarding `CCOC(=O)c1ccccc1NC(=O)N1CCc2nc[nH]c2C1`, the RP-LC retention time was 626 s. `CCc1noc(NC(C)=O)c1-c1ccc(C)c(S(=O)(=O)Nc2ccc(OC)c(Cl)c2)c1` had an RP-LC retention time of 1300 s. `Cc1cccc(C)c1Nc1c(-c2ccc(Cl)cc2)nc2ncccn12` registered an RP-LC retention time of 919 s. In turn, `Cc1ccc2[nH]cc(CCNC(=O)CS(=O)Cc3cnn(-c4ccccc4)c3-n3cccc3)c2c1` (centres undefined) gave an RP-LC retention time of 875 s.

On to `CCn1cc(CN2CCC(C(=O)NCc3ccccc3C)CC2)c2cc(OC)ccc21`, for which the RP-LC retention time worked out at 707 s. In turn, `Cc1ccc(C)c(N2CCN(c3ccnc(SCC(=O)NCc4ccccc4Cl)n3)CC2)c1` showed an RP-LC retention time of 952 s. `CCOC(=O)c1ccccc1NC(=O)NCC(c1cccnc1)c1cn(C)c2ccccc12` (centres undefined): the RP-LC retention time was found to be 824 s. Next, `CC(C)c1cccc(Nc2nc3ccncc3n(Cc3ccccc3)c2=O)c1`: 911 s; `CC(C)Oc1ccc(CN2C[C@@H]3C(=O)N(CCCN4CCCC4=O)C(=O)[C@@H]3C2)cc1`: 581 s. Then `CCOc1ccc(C(=O)NCC(=O)Nc2nc3ccccc3[nH]2)cc1OCC`, with 640 s. On to `N#Cc1cnn(-c2cccc(Cl)c2)c1-n1cccc1`, for which the RP-LC retention time stood at 1070 s. The compound `CCNC(=O)C1CCN(c2nc3ccc(-c4cccs4)nc3s2)CC1` had an RP-LC retention time of 815 s.

`O=C(CN1CCCCC1c1nc(-c2cccs2)no1)NCc1cccs1` (centres undefined): the RP-LC retention time is 996 s. Regarding `Cc1cccc(-c2noc(C3CCCN3S(=O)(=O)c3ccc4c(c3)CCC4)n2)c1` (centres undefined), the RP-LC retention time was 1270 s. The compound `CC(C)CNC(=O)Nc1ccc2c(c1)CCN2S(C)(=O)=O` displayed an RP-LC retention time of 733 s. In turn, `CCCC(NC(=O)Cc1ccc(OC)c(Cl)c1)C(=O)Nc1nc2ccccc2[nH]1` (centres undefined) registered an RP-LC retention time of 720 s. With `CC(C)N1CCCn2cc(S(=O)(=O)Nc3cccc(C(F)(F)F)c3)cc2C1=O`, the RP-LC retention time was 865 s. For the compound `CCCNC(=O)C1CCN(c2ccc(SCC(=O)Nc3c(C)cc(C)cc3C)nn2)CC1`, the RP-LC retention time came to 657 s.

Turning to `O=C(NCc1ccco1)c1ccccc1-c1nc(-c2ccccc2)no1`, the RP-LC retention time is 888 s. With `COCCNC(=O)CSc1nccnc1Oc1ccc(C)cc1`, the RP-LC retention time came out at 798 s. Then `CCOC(=O)C(C)NC(=O)N1CCc2cc(-c3ccc(C(=O)N4CCOCC4)cc3)ccc21` (centres undefined), with 751 s; and `COC(=O)c1ccc(C(=O)OC)c(NC(=O)N2CCC(CN3CC(C)CC(C)C3)CC2)c1` (centres undefined), with 722 s. In turn, `Cc1sc(-c2cc(C(F)(F)F)on2)cc1S(=O)(=O)NCc1ccccc1Cl` registered an RP-LC retention time of 1140 s. In the case of `COc1ccc(N2C=C(C(=O)N3CCCC3)S(=O)(=O)c3ccc(Cl)cc32)cc1`, the RP-LC retention time amounted to 856 s. The compound `COc1ccc(CNC(=O)CSc2nnc(-c3ccccc3)n2-n2cccc2)cc1` displayed an RP-LC retention time of 775 s. For the compound `COc1ccc(OCc2nc(-c3ccc4c(c3)nc(C)c(=O)n4C3CCCC3)no2)cc1`, the RP-LC retention time was found to be 1170 s. Next, `COc1cccc(C(=O)CSc2ccc(-n3cccn3)nn2)c1`: 847 s. `CC(=O)Nc1ccc(NC(=O)Cn2nc(C(=O)N3CCCCC3)c3ccccc32)cc1` registered an RP-LC retention time of 678 s. Take `CC(C)(C)c1ccc(-c2nc(C3CC(=O)N(c4ccc(Cl)cc4)C3)no2)cc1` (centres undefined): the RP-LC retention time came out at 861 s. In the case of `COc1ccc(OC)c(NC(=O)C2Oc3ccccc3NC2=O)c1` (centres undefined), the RP-LC retention time came out at 773 s. `COc1ccc2[nH]cc(CCNC(=O)C3CCCN(c4nc5ncccc5n5cccc45)C3)c2c1` (centres undefined) yielded an RP-LC retention time of 623 s. As to `CCCc1ccc(S(=O)(=O)N2CCN(c3nc4ccncc4n(C)c3=O)CC2)cc1`, the RP-LC retention time was 699 s. Turning to `COc1ccc(C(=O)Oc2ccc(/C=C/c3ccncc3)cc2OC)cc1OC`, the RP-LC retention time was 606 s.
